Target: T1, p56lck GST-SH2 (lck SH2 domain) (Homo sapiens, UniProt P06239)
T1 construct: GST (N)
Assay: Receptor-ligand equilibrium binding constants by surface plasmon resonance (biosensor), lck SH2 domain
Details: Table 1, compounds of formula (II)

T1 sequence (P06239 127-224 limits assumed): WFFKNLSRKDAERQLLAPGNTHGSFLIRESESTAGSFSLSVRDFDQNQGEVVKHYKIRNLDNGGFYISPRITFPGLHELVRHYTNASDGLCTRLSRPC

SMILES	Kd
Cc1ccn(Cc2ccc(C(C)C)cc2)c(=O)c1NC(=O)[C@H](Cc1ccc(C(C)(C)C(=O)O)cc1)NC(=O)Cc1cccc2ccccc12 [Compound 101]	4.3 µM
COc1ccc(Cn2ccc(C)c(NC(=O)[C@H](Cc3ccc(CC(=O)O)cc3)NC(=O)Cc3ccc(CC(C)(C)C)cc3)c2=O)cc1 [Compound 163]	1.1 µM
COc1ccc(Cn2ccc(C)c(NC(=O)[C@H](Cc3ccc(NC(=O)C(=O)O)cc3)NC(=O)Cc3ccccc3[N+](=O)[O-])c2=O)cc1 [Compound 34]	2.4 µM
COCCCCn1ccc(C)c(NC(=O)C(Cc2ccc(C(C)(C)C(=O)O)cc2)NC(=O)C(C)(C)c2ccc3ccccc3c2)c1=O (stereo not drawn) [Compound 236]	1.4 µM
COc1ccc(Cn2ccc(C)c(NC(=O)[C@H](Cc3ccc(CC(=O)O)cc3)NC(=O)C(C)(C)C)c2=O)cc1 [Compound 63]	12 µM
COc1ccc(Cn2ccc(C)c(NC(=O)[C@H](Cc3ccc(CC(=O)O)cc3)NC(=O)Cc3ccc(C(C)(C)C)cc3)c2=O)cc1 [Compound 162]	1 µM
COc1ccc(Cn2ccc(C)c(NC(=O)[C@H](Cc3ccc(CC(=O)O)cc3)NC(=O)Cc3ccc(Oc4ccccc4)cc3)c2=O)cc1 [Compound 71]	14 µM
COc1ccc(C(C)n2ccc(C)c(NC(=O)[C@H](Cc3ccc(CC(=O)O)cc3)NC(=O)Cc3cccc4ccccc34)c2=O)cc1 (stereo partly drawn) [Compound 83]	2.1 µM
COc1ccc(C(C)n2ccc(C)c(NC(=O)[C@H](Cc3ccc(CC(=O)O)cc3)NC(=O)C(C)(C)C)c2=O)cc1 (stereo partly drawn) [Compound 82]	32 µM
Cc1ccn(CCc2ccccc2)c(=O)c1NC(=O)[C@H](Cc1ccc(CC(=O)O)cc1)NC(=O)Cc1cccc2ccccc12 [Compound 21]	30.5 µM
COc1ccc(Cn2ccc(C)c(NC(=O)[C@H](Cc3ccc(NC(=O)C(=O)O)cc3)NC(=O)Cc3ccc(Br)cc3)c2=O)cc1 [Compound 36]	1.5 µM
COc1ccc(Cn2ccc(C)c(NC(=O)[C@H](Cc3ccc(NC(=O)C(=O)O)cc3)NC(=O)Cc3ccc([N+](=O)[O-])cc3)c2=O)cc1 [Compound 33]	3.7 µM
CCCCCn1ccc(C)c(NC(=O)C(Cc2ccc(C(C)(C)C(=O)O)cc2)NC(=O)Cc2cccc3ccccc23)c1=O (stereo not drawn) [Compound 191]	3.1 µM
Cc1ccn(CC=CCC2CCCCC2)c(=O)c1NC(=O)[C@H](Cc1ccc(CC(=O)O)cc1)NC(=O)Cc1cccc2ccccc12 [Compound 12]	> 250 µM
Cc1ccn(Cc2ccc(Cl)cc2)c(=O)c1NC(=O)[C@H](Cc1ccc(CC(=O)O)cc1)NC(=O)Cc1cccc2ccccc12 [Compound 55]	15 µM
COc1ccc(Cn2ccc(C)c(NC(=O)[C@H](Cc3ccc(NC(=O)C(=O)O)cc3)NC(=O)Nc3ccc(C(C)C)cc3)c2=O)cc1 [Compound 103]	12 µM
COc1ccc(Cn2ccc(C)c(NC(=O)[C@H](Cc3ccc(CC(=O)O)cc3)NC(=O)Cc3ccc4ccccc4c3)c2=O)cc1 [Compound 59, 3-[2'-(S)-(2'"-Naphthylacetyl)amino-3'-(4"-carboxymethyl)benzene]propanoylamino-1-(4-methoxybenzyl)-4-methyl-2-pyridone]	1.5 µM
COc1ccc(Cn2cccc(NC(=O)[C@H](Cc3ccc(CC(=O)O)cc3)NC(=O)Cc3cccc4ccccc34)c2=O)cc1 [Compound 90]	> 250 µM
COc1ccccc1Cn1ccc(C)c(NC(=O)[C@H](Cc2ccc(CC(=O)O)cc2)NC(=O)Cc2cccc3ccccc23)c1=O [Compound 19]	37.2 µM
COc1ccc(Cn2ccc(C)c(NC(=O)C(Cc3ccc(C(C)(C)C(=O)O)cc3)NC(=O)C(C)C)c2=O)cc1 (stereo not drawn) [Compound 170]	3.9 µM
COc1ccc(Cn2ccc(C)c(NC(=O)[C@H](Cc3ccc(N(O)C(=O)C(=O)O)cc3)NC(=O)Cc3c[nH]c4ccccc34)c2=O)cc1 [Compound 24]	2.9 µM
Cc1ccn(CCc2ccccc2)c(=O)c1NC(=O)C(Cc1ccc(C(C)(C)C(=O)O)cc1)NC(=O)Cc1cccc2ccccc12 (stereo not drawn) [Compound 199]	9.1 µM
Cc1ccn(Cc2ccccc2)c(=O)c1NC(=O)[C@H](Cc1ccc(CC(=O)O)cc1)NC(=O)Cc1cccc2ccccc12 [Compound 18]	17.7 µM
Cc1ccn(C/C=C/c2ccccc2)c(=O)c1NC(=O)C(Cc1ccc(C(C)(C)C(=O)O)cc1)NC(=O)C(C)(C)c1ccc2ccccc2c1 (racemic) [Compound 116]	3.2 µM
COc1ccc(Cn2ccc(C)c(NC(=O)[C@H](Cc3ccc(CC(=O)O)cc3)NC(=O)Cc3ccccc3)c2=O)cc1 [Compound 58]	5.6 µM
CCCCCCn1ccc(C)c(NC(=O)C(Cc2ccc(C(C)(C)C(=O)O)cc2)NC(=O)CCc2ccccc2)c1=O (stereo not drawn) [Compound 204]	10 µM
COc1ccc(Cn2ccc(C)c(NC(=O)[C@H](Cc3ccc(CC(=O)O)cc3)NC(=O)C(F)(F)F)c2=O)cc1 [Compound 87]	18 µM

SMILES	Kd
COc1ccc(Cn2ccc(C)c(NC(=O)[C@H](Cc3ccc(CC(=O)O)cc3)NC(=O)Cc3ccc(N(C)C)cc3)c2=O)cc1 [Compound 93]	12 µM
COc1ccc(Cn2ccc(C)c(NC(=O)[C@H](Cc3ccc(NC(=O)C(=O)O)cc3)NC(=O)Cc3nc(-c4ccccc4)sc3C)c2=O)cc1 [Compound 15]	1.8 µM
COc1ccc(Cn2ccc(C)c(NC(=O)[C@H](Cc3ccc(CC(=O)O)cc3)NC(=O)Cc3ccccc3Oc3ccccc3)c2=O)cc1 [Compound 73]	> 250 µM
CCCCCCn1ccc(C)c(NC(=O)C(Cc2ccc(C(C)(C)C(=O)O)cc2)NC(=O)Cc2cccs2)c1=O (stereo not drawn) [Compound 206]	0.89 µM
Cc1ccn(Cc2ccc(C(C)C)cc2)c(=O)c1NC(=O)[C@H](Cc1ccc(N(O)C(=O)C(=O)O)cc1)NC(=O)Cc1ccc(N(C)C)cc1 [Compound 96]	23 µM
COc1ccc(Cn2ccc(C)c(NC(=O)[C@H](Cc3ccc(C(CO)C(=O)O)cc3)NC(=O)OCc3ccccc3)c2=O)cc1 (stereo partly drawn) [Compound 50, 3-[2-(S)-Benzyloxycarbonylamino-3-[4'-(1"-(R,S)-carboxy-2"-hydroxy)ethyl]benzene]propanoylamino-1-(4-methoxybentyl)-4-methyl-2-pyridone]	39 µM
COc1ccc(Cn2cc(Br)c(C)c(NC(=O)[C@H](Cc3ccc(C(C)(C)C(=O)O)cc3)NC(=O)Cc3ccc(C(F)(F)F)cc3)c2=O)cc1 [Compound 228]	0.08 µM
COc1ccc(Cn2ccc(C)c(NC(=O)[C@H](Cc3ccc(NC(=O)C(=O)O)cc3)NC(=O)c3csc(NS(=O)(=O)c4ccc(Cl)cc4)n3)c2=O)cc1 [Compound 14]	4.2 µM
Cc1ccn(CC2CCOC2)c(=O)c1NC(=O)C(Cc1ccc(C(C)(C)C(=O)O)cc1)NC(=O)Cc1cccc2ccccc12 (stereo not drawn) [Compound 210]	15 µM
COc1ccc(Cn2ccc(C)c(NC(=O)[C@H](Cc3ccc(C(C)(C)C(=O)O)cc3)NC(=O)Cc3ccccc3)c2=O)cc1 [Compound 120]	0.43 µM
COc1ccc(Cn2ccc(C)c(NC(=O)[C@H](Cc3ccc(NC(=O)C(=O)O)cc3)NC(=O)Nc3c(C)ccc4ccccc34)c2=O)cc1 [Compound 30]	0.35 µM
COc1ccc(Cn2ccc(C)c(NC(=O)[C@H](Cc3ccc(C(C)(C)C(=O)O)cc3)NC(=O)Cc3ccc(Br)cc3)c2=O)cc1 [Compound 110]	0.18 µM
COCCOCn1ccc(C)c(NC(=O)C(Cc2ccc(C(C)(C)C(=O)O)cc2)NC(=O)Cc2ccc3ccccc3c2)c1=O (stereo not drawn) [Compound 189]	13 µM
COc1ccc(Cn2ccc(C)c(NC(=O)[C@H](Cc3ccc(CC(=O)O)cc3)NC(=O)Cc3cc4ccccc4cc3C)c2=O)cc1 [Compound 60]	1.9 µM
COc1ccc(Cn2ccc(C)c(NC(=O)[C@H](Cc3ccc(NC(=O)C(=O)O)cc3)NC(=O)Cc3c[nH]c4ccccc34)c2=O)cc1 [Compound 5]	1.3 µM
COCCCCn1ccc(C)c(NC(=O)C(Cc2ccc(C(C)(C)C(=O)O)cc2)NC(=O)Cc2ccc3ccccc3c2)c1=O (stereo not drawn) [Compound 237]	3.1 µM
COc1ccc(Cn2ccc(C)c(NC(=O)[C@H](Cc3ccc(NC(=O)C(=O)O)cc3)NC(=O)Cc3ccccc3)c2=O)cc1 [Compound 102]	1.9 µM
COc1ccc(Cn2ccc(C)c(NC(=O)C(Cc3ccc(C(C)(C)C(=O)O)cc3)NC(=O)C(C)(C)c3ccc4ccccc4c3)c2=O)cc1O (stereo not drawn) [Compound 232]	33 µM
COc1ccc(Cn2ccc(C)c(NC(=O)[C@H](Cc3ccc(NC(=O)C(=O)O)cc3)NC(=O)Cc3ccc(C(C)C)cc3)c2=O)cc1 [Compound 43]	1.9 µM
COc1ccc(Cn2ccc(C)c(NC(=O)[C@H](Cc3ccc(C(C)C(=O)O)cc3)NC(=O)Cc3cccc4ccccc34)c2=O)cc1 (stereo partly drawn) [Compound 3]	5.1 µM
COc1ccc(Cn2ccc(C)c(NC(=O)[C@H](Cc3ccc(C(O)C(=O)O)cc3)NC(=O)Cc3cccc4ccccc34)c2=O)cc1 (stereo partly drawn) [Compound 8, 3-[2'-(S)-(1""-Naphthylacetyl)amino-3'-[4"-(1'"-hydroxy-1'"-carboxy)methyl]benzene]propanoylamino-1-(4-methoxybenzyl)-4-methyl-2-pyridone]	0.99 µM
Cc1ccn(Cc2ccoc2)c(=O)c1NC(=O)C(Cc1ccc(C(C)(C)C(=O)O)cc1)NC(=O)C(C)(C)c1ccc2ccccc2c1 (stereo not drawn) [Compound 203]	11 µM
Cc1ccn(C/C=C/c2ccccc2)c(=O)c1NC(=O)C(Cc1ccc(C(C)(C)C(=O)O)cc1)NC(=O)C(C)(C)c1ccc2ccccc2c1 (stereo not drawn) [Compound 177]	3.2 µM
Cc1ccn(CC2CCOC2)c(=O)c1NC(=O)C(Cc1ccc(C(C)(C)C(=O)O)cc1)NC(=O)C(C)(C)c1ccc2ccccc2c1 (stereo not drawn) [Compound 212]	23 µM
Cc1ccn(Cc2ccccc2)c(=O)c1NC(=O)C(Cc1ccc(C(C)(C)C(=O)O)cc1)NC(=O)Cc1ccc2ccccc2c1 (stereo not drawn) [Compound 198]	2.5 µM
COc1ccc(Cn2cc(Br)c(C)c(NC(=O)[C@H](Cc3ccc(C(C)(C)C(=O)O)cc3)NC(=O)C(C)(F)c3ccc(C(F)(F)F)cc3)c2=O)cc1 (stereo partly drawn) [Compound 234]	1.6 µM

Same assay, conditions: Table 2, compounds of formula (III)

SMILES	Kd
COc1ccc(Cn2ncc(C)c(NC(=O)C(Cc3ccc(C(C)(C)C(=O)O)cc3)NC(=O)Cc3ccccc3)c2=O)cc1 (stereo not drawn) [Compound 245]	23 µM

From patent US6284768A, “Src family SH2 domain inhibitors” (Boehringer Ingelheim Pharmaceuticals, Inc., priority 1999, dated 2001)
